Data reported in patent US10507209B2, “Quinazoline derivatives substituted by aniline, preparation method and use thereof” (XUANZHU PHARMA CO., LTD., priority 2010, dated 2019).
Where a name gives a salt, the structure may show the parent alone. Read-outs that look alike come from different tables or passages of the source. Marks after values point to notes of the source that are not given here.

Assays:
[1] = system: H1975 cells; experiment: In vitro cellular inhibitory activity on H1975 (XTT); type: cell-based; conditions: Homo sapiens, NCI-H1975, 72 hours
From the text: Table 2 in vitro cellular inhibitory activities on H1975 (NSCLC, nonsmall-cell lung cancer)

[2] = system: Calu-3 cells; experiment: In vitro cellular inhibitory activity on Calu-3 (XTT); type: cell-based; conditions: Homo sapiens, 72 hours
From the text: Table 3 in vitro cellular inhibitory activities on Calu-3 (NSCLC nonsmall-cell lung cancer)

[3] = system: A431 cells; experiment: In vitro cellular inhibitory activity on A431 (XTT); type: cell-based; conditions: Homo sapiens, A-431, 72 h, read-out: IC50 A431 cells
[4] = system: human-derived LN-229 glioblastoma xenograft; experiment: In vivo pharmacodynamic evaluation, human-derived LN-229 glioblastoma xenograft; set-up: species or system BALB/c nude mice; conditions: 28 days after the administration
[5] = system: gallbladder carcinoma xenografts model GL6899; experiment: In vivo pharmacodynamic evaluation, gallbladder carcinoma xenografts model GL6899; set-up: species or system BALB/c nude mice
Method: GL6899, gallbladder carcinoma from a patient
Comparison between the two groups of data was tested by independent sample t test.

[6] = system: human-derived xenograft model HN2170; experiment: In vivo pharmacodynamic evaluation, head and neck cancer xenograft model HN2170; set-up: species or system BALB/c nude mice; conditions: for Tumor Volume (Day 0): Day 0 (grouping, baseline); for T/C / TGI / Tumor Volume: 25 days after the administration
Method: HN2170, head and neck cancer from a patient.
They were administered totally 25 days.

[7] = system: 5637 cells; experiment: In vitro cellular inhibitory activity on 5637 bladder carcinoma cells (CTG kit); type: cell-based; conditions: Homo sapiens, 72 hours
Method: The effect of the compound to be tested on 5637 (bladder carcinoma) cell proliferation was tested using CTG kit.
535 μl DMSO was added into an EP tube filled with 3.32 mg of Compound 18 and evenly shaken (10 mM);
590 μl DMSO was added into an EP tube filled with 3.16 mg of Compound AZD9291 and evenly shaken (10 mM);
The compound was diluted with DMSO by 4-fold from 10 mM to 2.5 mM, 625 μM, 156 μM, 39 μM, 9.8 μM, 2.4 μM, 0.61 μM, 0.15 μM, 0.04 μM in turn.
Formulating a stock solution of a 10-fold compound: 2 μl 1000-fold Compound 18 or AZD9291 was respectively added into a 198 μl culture medium and evenly shaken.
1) Plating in the 384-well plate with 250 cells/well/22.5 ul;
2) After 24 hours, each well was added with 2.5 ul 10-fold drug which was well diluted to make the final concentration of 10 μM, 2.5 μM, 625 nM, 156 nM, 39 nM, 9.8 nM, 2.5 nM, 0.610 nM, 0.153 nM, 0.04 nM.
3) The plate was placed in the CO2 incubator and incubated at 37° C. for 72 hours
2) Each well was added with 25 ul CellTiter-Glo® agent, mixed for 2 minutes and placed at room temperature while being kept in darkness for 10 minutes.
3) Reading the […] using EnVision 2104 Multilabel Reader.

[8] = system: SKOV-3 human-derived xenografts model in ovarian cancer; experiment: In vivo pharmacodynamic evaluation, SKOV-3 human-derived xenografts model in ovarian cancer; set-up: species or system BALB/c nude mice; conditions: 14 days after the administration
Method: The tumor was then stripped under sterile conditions to remove the necrotic tissues and select the well developed tumor tissues which were inoculated subcutaneously into an animal again. In this way the tumor tissues were subjected to passage for twice in the body of the mice. […] The tumor blocks were inoculated subcutaneously to the right coastal region of the mice with an inoculation needle. […] The tumor size was measured twice a week with an […] caliper.

[9] = system: NCI-N87 cell; experiment: In vitro cellular inhibitory activity on NCI-N87 gastric carcinoma cells (XTT); type: cell-based; conditions: Homo sapiens, read-out: IC50 NCI-N87 cell
Method: For each compound, the above operation was triplicated. […] 2) The plate was placed in the CO2 incubator and incubated at 37° C. for 72 hours. 2) The culture medium was removed and each well was added with 150 μl XTT working solution. […] 4) Slightly and evenly shaking before reading the absorbance.

[10] = system: human-derived cholangiocarcinoma (10114) xenograft model; experiment: In vivo pharmacodynamic evaluation, human-derived cholangiocarcinoma (10114) xenograft model; set-up: species or system BALB/c nude mice
Method: 10114, cholangiocarcinoma from a patient.
Tumor tissues of human cholangiocarcinoma (10114) were cut into tumor blocks of volume of 3 mm×3 mm×3 mm which were inoculated subcutaneously in mice. The tumor volume was observed and measured. […] The efficacy was evaluated according to the tumor growth inhibition (TGI).
The experimental data were analyzed using statistical software SPSS 20.0. The data associated with the tumor volume was analyzed with T-test. **P<0.05 compared with the control group represents significant statistical difference.

[11] = system: BT474 cells; experiment: In vitro cellular inhibitory activity on BT474 mammary cancer cells (XTT); type: cell-based; conditions: Homo sapiens, BT-474, 72 hours
Method: BT474 cells (human breast ductal carcinoma cell, purchased from ATCC). […] The maximum concentration of the test compound was 10 μM, and there were 10 concentration gradients in total. For each compound, the operation was duplicated. […] 2) The plate was placed in the CO2 cell incubator and incubated at 37° C. for 72 hours. 2) The culture medium was removed; each well was added with 150 μl XTT working solution. […] 4) Slightly and evenly shaking before reading the absorbance.

[12] = system: KYSE270 human esophageal carcinoma model; conditions: for Relative Tumor Volume / T/C / TGI / Tumor Volume: 21 days after the administration
[13] = 20 mg/kg p.o. once a day, 21 days
[14] = 20 mg/kg oral once a day, 21 days after the administration

Q: `C=CC(=O)Nc1cc2c(Nc3ccc(F)c(Cl)c3)ncnc2cc1OCCCN1CCOCC1` [CI-1033 hydrochloride, reference compound] was tested. Which IC50 [1] did it give?
A: The IC50 was 0.157 µM.

Q: What about the IC50 [2] of the same compound?
A: Its IC50 is 0.686 µM.

Q: And the IC50 [3]?
A: Its IC50 is 0.402 µM.

Q: How did the IC50 [1] turn out when `C=CC(=O)Nc1cc2c(Nc3ccc(F)c(Cl)c3)ncnc2cc1OCC[C@@H]1[C@H]2CN(C)C[C@@H]12` [Compound 8] was run?
A: Its IC50 is 0.306 µM.

Q: And the T/C ([4]; 30 mg/kg oral once a day)?
A: The T/C was 21.3%.

Q: And the TGI ([4]; 30 mg/kg oral once a day)?
A: Its TGI is 78.7%.

Q: And the “Tumor Volume” value ([4]; 30 mg/kg oral once a day)?
A: The value was 121 ± 17 mm^3.

Q: `C=CC(=O)Nc1cc2c(Nc3ccc(F)c(Cl)c3)ncnc2cc1OCC1CC2(CCN(C)CC2)C1` [Compound 18, N-[4-(3-chloro-4-fluorophenylamino)-7-((7-methyl-7-azaspiro[3.5]nonan-2-yl)methoxy)quinazolin-6-yl]-acrylamide] was tested. Which “Tumor Volume on day 0” value ([5]; 20 mg/kg group, day 0 (grouping, baseline)) did it give?
A: Its value is 135.53 ± 9.60 mm^3.

Q: And the T/C [5, 13]?
A: Its T/C is 2.6%.

Q: And the TGI [5, 13]?
A: The TGI was 97.4%.

Q: What about the “Tumor Volume after adminstration of 21 days” value [5, 13] of the same compound?
A: Its value is 26.63 ± 2.37*** mm^3.

Q: What about the “Tumor Volume (Day 0)” value ([6]; 20 mg/kg group) of the same compound?
A: The value was 143.1 ± 22.9 mm^3.

Q: What about the T/C ([6]; 20 mg/kg oral once a day) of the same compound?
A: Its T/C is 6.5%.

Q: And the TGI ([6]; 20 mg/kg oral once a day)?
A: Its TGI is 93.5%.

Q: And the “Tumor Volume” value ([6]; 20 mg/kg oral once a day)?
A: Its value is 46.3 ± 10.6*** mm^3.

Q: And the IC50 [7]?
A: The IC50 was 0.0386 µM.

Q: And the IC50 [1]?
A: Its IC50 is 0.0923 µM.

Q: What about the T/C ([8]; 10 mg/kg oral once a day) of the same compound?
A: Its T/C is 49.1%.

Q: And the TGI ([8]; 10 mg/kg oral once a day)?
A: Its TGI is 50.9%.

Q: What about the “Tumor Volume” value ([8]; 10 mg/kg oral once a day) of the same compound?
A: The value was 798 ± 88 mm^3.

Q: What about the T/C ([8]; 20 mg/kg oral once a day) of the same compound?
A: Its T/C is 32.1%.

Q: What about the TGI ([8]; 20 mg/kg oral once a day) of the same compound?
A: Its TGI is 67.9%.

Q: What about the “Tumor Volume” value ([8]; 20 mg/kg oral once a day) of the same compound?
A: Its value is 540 ± 86 mm^3.

Q: What about the IC50 ([9]; NCI-N87, 72 hours, XTT) of the same compound?
A: The IC50 was 0.0071 µM.

Q: What about the “Tumor Volume On Day 0” value ([10]; 20 mg/kg group, Day 0 (grouping, baseline)) of the same compound?
A: The value was 138.6 ± 8.9 mm^3.

Q: And the “Relative Tumor Volume” value [10, 14]?
A: The value was 77.13 ± 9.34%.

Q: And the T/C [10, 14]?
A: The T/C was 18.1%.

Q: What about the TGI [10, 14] of the same compound?
A: Its TGI is 81.9%.

Q: And the “Tumor Volume” value [10, 14]?
A: Its value is 107.53 ± 15.80*** mm^3.

Q: And the IC50 [11]?
A: The IC50 was 0.0097 µM.

Q: What about the T/C ([4]; 10 mg/kg oral once a day) of the same compound?
A: The T/C was 45.6%.

Q: And the TGI ([4]; 10 mg/kg oral once a day)?
A: The TGI was 54.4%.

Q: And the “Tumor Volume” value ([4]; 10 mg/kg oral once a day)?
A: Its value is 260 ± 27 mm^3.

Q: And the T/C ([4]; 20 mg/kg oral once a day)?
A: The T/C was 34.0%.

Q: And the TGI ([4]; 20 mg/kg oral once a day)?
A: Its TGI is 66.0%.

Q: What about the “Tumor Volume” value ([4]; 20 mg/kg oral once a day) of the same compound?
A: The value was 191 ± 11 mm^3.

Q: And the “Tolerability in mice with tumor” value ([12]; 10 mg/kg and 20 mg/kg)?
A: The value was “can tolerate the tested drugs well”.

Q: What about the “Relative Tumor Volume” value ([12]; 10 mg/kg oral once a day) of the same compound?
A: The value was 0.33 ± 0.05.

Q: And the T/C ([12]; 10 mg/kg oral once a day)?
A: The T/C was 2%.

Q: And the TGI ([12]; 10 mg/kg oral once a day)?
A: Its TGI is 98%.

Q: What about the “Tumor Volume” value ([12]; 10 mg/kg oral once a day) of the same compound?
A: Its value is 40 ± 6 mm^3.

Q: What about the “Relative Tumor Volume” value ([12]; 20 mg/kg oral once a day) of the same compound?
A: Its value is 0.11 ± 0.02.

Q: What about the T/C ([12]; 20 mg/kg oral once a day) of the same compound?
A: Its T/C is 1%.

Q: What about the TGI ([12]; 20 mg/kg oral once a day) of the same compound?
A: The TGI was 99%.

Q: What about the “Tumor Volume” value ([12]; 20 mg/kg oral once a day) of the same compound?
A: Its value is 14 ± 3 mm^3.

Q: What about the IC50 [2] of the same compound?
A: The IC50 was 0.0382 µM.

Q: With `C=CC(=O)Nc1cc2c(Nc3ccc(F)c(Cl)c3)ncnc2cc1OCCC1CC2(CCN(C)CC2)C1` [Compound 19 hydrochloride, N-[4-(3-chloro-4-fluorophenylamino)-7-(2-(7-methyl-7-azaspiro[3.5]nonan-2-yl)ethoxy)quinazolin-6-yl]-acrylamide hydrochloride] as the compound, how does the IC50 [1] read?
A: Its IC50 is 0.104 µM.

Q: With `C#Cc1cccc(Nc2ncnc3cc(OCCOC)c(OCCOC)cc23)c1` [Erlotinib hydrochloride, erlotinib hydrochloride, reference compound] as the compound, how does the IC50 [1] read?
A: Its IC50 is 3.98 µM.

Q: And the IC50 [2]?
A: The IC50 was 1.32 µM.

Q: How did the IC50 [1] turn out when `CS(=O)(=O)CCNCc1ccc(-c2ccc3ncnc(Nc4ccc(OCc5cccc(F)c5)c(Cl)c4)c3c2)o1` [Lapatinib ditosylate, lapatinib ditosylate, reference compound] was run?
A: Its IC50 is 4.53 µM.

Q: What about the IC50 [2] of the same compound?
A: Its IC50 is 0.0943 µM.

Q: For `CS(=O)(=O)CCNCc1ccc(-c2ccc3ncnc(Nc4ccc(OCc5cccc(F)c5)c(Cl)c4)c3c2)o1` [Lapatinib, reference compound], which T/C ([8]; 80 mg/kg oral once a day) is on record?
A: Its T/C is 83.4%.

Q: And the “Tumor Volume” value ([8]; 80 mg/kg oral once a day)?
A: The value was 1339 ± 167 mm^3.

Q: What about the IC50 ([9]; NCI-N87, 72 h) of the same compound?
A: Its IC50 is 0.0119 µM.

Q: And the T/C ([4]; 200 mg/kg oral once a day)?
A: Its T/C is 45.6%.

Q: And the TGI ([4]; 200 mg/kg oral once a day)?
A: Its TGI is 54.4%.

Q: What about the “Tumor Volume” value ([4]; 200 mg/kg oral once a day) of the same compound?
A: Its value is 261 ± 42 mm^3.

Q: With `CCOc1cc2ncc(C#N)c(Nc3ccc(OCc4ccccn4)c(Cl)c3)c2cc1NC(=O)/C=C/CN(C)C` [Neratinib, reference compound] as the compound, how does the “Tumor Volume (Day 0)” value ([6]; 80 mg/kg group) read?
A: Its value is 142.4 ± 23.4 mm^3.

Q: What about the T/C ([6]; 80 mg/kg oral once a day) of the same compound?
A: Its T/C is 7.2%.

Q: And the TGI ([6]; 80 mg/kg oral once a day)?
A: The TGI was 92.8%.

Q: What about the “Tumor Volume” value ([6]; 80 mg/kg oral once a day) of the same compound?
A: The value was 53.7 ± 10.3*** mm^3.

Q: What about the T/C ([4]; 80 mg/kg oral once a day) of the same compound?
A: The T/C was 34.3%.

Q: What about the TGI ([4]; 80 mg/kg oral once a day) of the same compound?
A: Its TGI is 65.7%.

Q: What about the “Tumor Volume” value ([4]; 80 mg/kg oral once a day) of the same compound?
A: Its value is 197 ± 20 mm^3.
